# Results: ChEMBL document CHEMBL6078625 (J Med Chem, 2024)
# Columns and labels:
# [1] = target: Epithelial discoidin domain-containing receptor 1 (Homo sapiens, UniProt Q08345); assay: Inhibition of human DDR1 by discoverX kinome scan assay
# [2] = target: T1, Discoidin domain-containing receptor 2 (Homo sapiens, UniProt Q16832); assay: Inhibition of human DDR2 by discoverX kinome scan assay
# T1 sequence (Q16832 whole entry): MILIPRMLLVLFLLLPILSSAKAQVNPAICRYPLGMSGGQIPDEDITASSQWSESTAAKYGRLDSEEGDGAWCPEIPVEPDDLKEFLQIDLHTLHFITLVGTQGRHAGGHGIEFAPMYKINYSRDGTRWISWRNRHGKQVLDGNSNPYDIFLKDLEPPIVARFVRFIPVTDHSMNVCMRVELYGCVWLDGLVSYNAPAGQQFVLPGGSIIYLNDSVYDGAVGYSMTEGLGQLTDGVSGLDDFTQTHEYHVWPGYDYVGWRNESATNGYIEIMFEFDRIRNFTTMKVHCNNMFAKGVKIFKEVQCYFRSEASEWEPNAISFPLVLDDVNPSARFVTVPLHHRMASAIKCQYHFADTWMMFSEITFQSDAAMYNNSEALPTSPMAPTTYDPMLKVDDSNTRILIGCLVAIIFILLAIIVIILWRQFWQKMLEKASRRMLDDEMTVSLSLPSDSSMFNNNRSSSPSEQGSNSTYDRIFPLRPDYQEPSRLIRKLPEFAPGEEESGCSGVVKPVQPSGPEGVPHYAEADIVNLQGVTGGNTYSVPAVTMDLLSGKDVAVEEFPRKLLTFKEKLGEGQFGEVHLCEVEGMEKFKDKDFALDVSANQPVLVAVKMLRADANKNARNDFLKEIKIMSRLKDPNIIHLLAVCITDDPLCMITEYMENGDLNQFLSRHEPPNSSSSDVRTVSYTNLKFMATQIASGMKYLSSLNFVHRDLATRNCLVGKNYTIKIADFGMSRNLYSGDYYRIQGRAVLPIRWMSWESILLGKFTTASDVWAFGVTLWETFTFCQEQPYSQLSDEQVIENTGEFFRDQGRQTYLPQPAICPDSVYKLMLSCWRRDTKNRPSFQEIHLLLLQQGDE
# [3] = target: High affinity nerve growth factor receptor (Homo sapiens, UniProt P04629); assay: Inhibition of human TRKA by discoverX kinome scan assay
# Sequence of High affinity nerve growth factor receptor (P04629 whole entry): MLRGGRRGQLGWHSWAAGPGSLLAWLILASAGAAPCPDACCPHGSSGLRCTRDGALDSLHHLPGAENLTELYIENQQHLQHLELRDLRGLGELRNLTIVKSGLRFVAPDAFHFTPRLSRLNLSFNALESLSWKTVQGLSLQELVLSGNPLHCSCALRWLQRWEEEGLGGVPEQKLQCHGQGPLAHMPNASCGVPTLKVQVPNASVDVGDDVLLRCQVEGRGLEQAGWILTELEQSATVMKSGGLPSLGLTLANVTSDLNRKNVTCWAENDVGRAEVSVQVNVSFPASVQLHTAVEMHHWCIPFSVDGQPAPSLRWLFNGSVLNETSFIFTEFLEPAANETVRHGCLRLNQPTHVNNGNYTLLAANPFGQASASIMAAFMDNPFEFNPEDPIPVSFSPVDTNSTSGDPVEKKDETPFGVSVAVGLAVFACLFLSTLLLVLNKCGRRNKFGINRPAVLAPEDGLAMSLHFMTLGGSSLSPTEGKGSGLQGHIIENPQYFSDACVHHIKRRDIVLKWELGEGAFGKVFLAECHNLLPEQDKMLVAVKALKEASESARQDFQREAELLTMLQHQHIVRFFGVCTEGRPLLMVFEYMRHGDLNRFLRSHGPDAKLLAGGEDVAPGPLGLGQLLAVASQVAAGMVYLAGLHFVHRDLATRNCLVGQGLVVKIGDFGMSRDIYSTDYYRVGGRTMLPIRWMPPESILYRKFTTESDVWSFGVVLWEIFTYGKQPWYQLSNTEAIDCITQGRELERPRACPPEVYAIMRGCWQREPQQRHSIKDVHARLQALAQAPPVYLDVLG
# [4] = target: T2, Muscle, skeletal receptor tyrosine-protein kinase (Homo sapiens, UniProt O15146); assay: Inhibition of human MUSK by discoverX kinome scan assay
# T2 sequence (O15146 whole entry): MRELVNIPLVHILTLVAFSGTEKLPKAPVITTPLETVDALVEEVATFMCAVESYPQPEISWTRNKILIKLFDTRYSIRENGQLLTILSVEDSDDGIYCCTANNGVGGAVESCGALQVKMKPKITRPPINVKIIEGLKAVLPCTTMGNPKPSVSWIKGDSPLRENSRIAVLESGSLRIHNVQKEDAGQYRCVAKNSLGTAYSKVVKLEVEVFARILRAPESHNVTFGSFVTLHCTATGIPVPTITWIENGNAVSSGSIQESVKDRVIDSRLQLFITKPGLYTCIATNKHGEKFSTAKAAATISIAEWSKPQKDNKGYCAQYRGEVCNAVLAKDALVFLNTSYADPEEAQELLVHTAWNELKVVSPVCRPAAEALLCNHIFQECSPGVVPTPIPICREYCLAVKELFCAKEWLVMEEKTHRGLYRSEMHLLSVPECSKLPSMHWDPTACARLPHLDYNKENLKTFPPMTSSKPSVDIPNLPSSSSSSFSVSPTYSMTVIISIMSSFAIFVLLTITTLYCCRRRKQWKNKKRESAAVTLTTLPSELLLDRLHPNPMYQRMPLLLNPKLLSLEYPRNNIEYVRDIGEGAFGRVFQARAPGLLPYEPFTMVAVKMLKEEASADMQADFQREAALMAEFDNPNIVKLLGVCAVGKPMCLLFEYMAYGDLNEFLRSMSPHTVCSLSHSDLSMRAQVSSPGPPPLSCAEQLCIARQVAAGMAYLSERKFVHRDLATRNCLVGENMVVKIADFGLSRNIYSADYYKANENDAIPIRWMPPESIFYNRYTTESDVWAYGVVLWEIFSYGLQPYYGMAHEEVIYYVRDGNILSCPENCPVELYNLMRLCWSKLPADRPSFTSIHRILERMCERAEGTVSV
# [5] = target: T3, Receptor-type tyrosine-protein kinase FLT3 (Homo sapiens, UniProt P36888); assay: Inhibition of wild type FLT3 (unknown origin)
# T3 sequence (P36888 whole entry): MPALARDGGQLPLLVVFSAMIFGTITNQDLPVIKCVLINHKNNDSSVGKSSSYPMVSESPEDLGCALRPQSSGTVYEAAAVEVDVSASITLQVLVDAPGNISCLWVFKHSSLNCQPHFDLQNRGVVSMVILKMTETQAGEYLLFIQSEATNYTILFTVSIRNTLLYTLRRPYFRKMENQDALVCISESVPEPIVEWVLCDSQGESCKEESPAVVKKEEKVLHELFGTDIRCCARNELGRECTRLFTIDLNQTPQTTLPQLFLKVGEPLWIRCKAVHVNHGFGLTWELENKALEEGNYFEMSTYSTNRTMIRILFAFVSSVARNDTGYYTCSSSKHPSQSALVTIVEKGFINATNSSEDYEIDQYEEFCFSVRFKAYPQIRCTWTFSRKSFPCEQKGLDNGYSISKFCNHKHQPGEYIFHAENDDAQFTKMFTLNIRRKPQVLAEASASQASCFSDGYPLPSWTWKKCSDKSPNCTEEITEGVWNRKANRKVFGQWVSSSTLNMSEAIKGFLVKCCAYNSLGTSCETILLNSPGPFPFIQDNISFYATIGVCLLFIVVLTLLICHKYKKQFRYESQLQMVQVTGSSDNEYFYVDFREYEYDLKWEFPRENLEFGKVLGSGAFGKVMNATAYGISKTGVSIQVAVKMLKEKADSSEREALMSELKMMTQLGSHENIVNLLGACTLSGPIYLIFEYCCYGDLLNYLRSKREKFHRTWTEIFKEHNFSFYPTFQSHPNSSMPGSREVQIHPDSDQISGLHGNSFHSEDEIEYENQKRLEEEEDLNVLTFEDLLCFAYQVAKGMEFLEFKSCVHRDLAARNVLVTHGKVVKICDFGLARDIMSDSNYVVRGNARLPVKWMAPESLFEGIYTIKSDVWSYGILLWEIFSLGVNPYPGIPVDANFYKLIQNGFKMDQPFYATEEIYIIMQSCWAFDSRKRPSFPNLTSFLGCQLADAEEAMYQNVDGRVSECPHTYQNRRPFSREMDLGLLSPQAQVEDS
# MOLM-13 = assay: Antiproliferative activity against human MOLM-13 cells; type: functional, cell-based
# MV4-11 = assay: Antiproliferative activity against human MV4-11 cells; type: functional, cell-based
# BaF3 [6] = assay: Antiproliferative activity against mouse BaF3 cells harbouring FLT3-ITD-F691L mutant; type: functional, cell-based
# BaF3 [7] = assay: Antiproliferative activity against mouse BaF3 cells harbouring FLT3-ITD-N676D mutant; type: functional, cell-based
# BaF3 [8] = assay: Antiproliferative activity against mouse BaF3 cells harbouring FLT3-ITD-D835V mutant; type: functional, cell-based
# Sequence of Epithelial discoidin domain-containing receptor 1 (Q08345 whole entry, the tested form may be a part): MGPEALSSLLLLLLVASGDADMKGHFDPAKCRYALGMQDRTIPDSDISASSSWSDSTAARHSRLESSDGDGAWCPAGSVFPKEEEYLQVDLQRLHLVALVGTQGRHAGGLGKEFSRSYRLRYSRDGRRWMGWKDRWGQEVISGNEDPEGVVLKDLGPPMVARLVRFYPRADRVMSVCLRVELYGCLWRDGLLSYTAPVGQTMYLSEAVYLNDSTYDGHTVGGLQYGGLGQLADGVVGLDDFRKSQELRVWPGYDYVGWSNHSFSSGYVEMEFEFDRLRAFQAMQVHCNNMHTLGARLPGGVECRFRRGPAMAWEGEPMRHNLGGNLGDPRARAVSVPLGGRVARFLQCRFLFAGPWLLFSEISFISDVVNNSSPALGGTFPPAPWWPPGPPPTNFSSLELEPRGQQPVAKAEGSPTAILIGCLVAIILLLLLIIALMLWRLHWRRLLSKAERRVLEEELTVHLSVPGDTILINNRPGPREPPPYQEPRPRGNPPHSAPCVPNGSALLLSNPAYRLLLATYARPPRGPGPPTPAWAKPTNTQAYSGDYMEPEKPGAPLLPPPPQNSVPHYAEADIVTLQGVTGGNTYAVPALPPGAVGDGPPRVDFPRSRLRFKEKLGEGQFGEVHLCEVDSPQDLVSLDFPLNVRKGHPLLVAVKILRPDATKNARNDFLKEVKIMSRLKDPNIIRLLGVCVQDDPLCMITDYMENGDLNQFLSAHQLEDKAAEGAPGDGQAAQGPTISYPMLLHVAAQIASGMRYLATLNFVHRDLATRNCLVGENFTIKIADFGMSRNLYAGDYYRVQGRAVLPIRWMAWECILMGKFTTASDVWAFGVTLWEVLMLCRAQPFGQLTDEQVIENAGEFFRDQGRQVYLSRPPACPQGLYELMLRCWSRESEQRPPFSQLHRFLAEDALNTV
Compound,IC50 [1] [nM],IC50 [2] [nM],IC50 [3] [nM],IC50 [4] [nM],IC50 [5] [nM],IC50 (MOLM-13) [nM],IC50 (MV4-11) [nM],IC50 (BaF3 [6]) [nM],IC50 (BaF3 [7]) [nM],IC50 (BaF3 [8]) [nM]
Cc1cc(-c2ccc(NC(=O)Nc3ccc(C(C)(C)C)cc3)cc2)c2c(N)noc2n1,55.4,96.7,113,> 1000,–,–,–,–,–,–
COc1cccc(CC(=O)Nc2ccc(-c3cc(C)nc4nocc34)cc2)c1,–,–,–,–,103,140,58,3570,1160,8420
